Reference: patent US8637525B2, “Compounds for the reduction of beta-amyloid production” (Bristol-Myers Squibb Company, priority 2009, dated 2014)
Where a name gives a salt, the structure may show the parent alone.

Each molecule was assayed on Aβ1-42 production (assay: Cellular assay for inhibition of Aβ1-42 production (H4 APP751 SWE clone 8.20)). Settings: 19 h, H4 APP751 SWE clone 8.20 cells, 19 h incubation; class symbols; read-out: Activity Rating (Aβ42 cellular IC50).
Format: cell-based
Method in brief: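 Viewlux signal read-out; IC50 by curve fit. Sandwich: 565 anti-Aβ42 neoepitope (Wallac conjugate, 0.8 ng/well) + 26D6 anti-N-terminus (APC, 75 ng/well), in Tris-HCl 40 mM pH 7.4/0.2% BSA, o/n 4 °C. Cells exposed to compound 19 h, 37 °C, 5% CO2.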

| IC50 [nM] | SMILES |
| --- | --- |
| 10 to 100 | COc1cc(Nc2nc3c(c(N4CC(F)(F)C4)n2)COC3c2ccc(F)cc2)ccc1-n1cnc(Cl)c1 (centres unmarked) [Example 80A, N-(4-(4-chloro-1H-imidazol-1-yl)-3-methoxyphenyl)-4-(3,3-difluoroazetidin-1-yl)-7-(4-fluorophenyl)-5,7-dihydrofuro[3,4-d]pyrimidin-2-amine] |
| 10 to 100 | COc1cc(Nc2nc3c(c(N4C[C@@H](C)O[C@@H](C)C4)n2)COC3c2ccc(F)cc2)ccc1-n1cnc(Cl)c1 (stereo partly drawn) [Example 84A, N-(4-(4-chloro-1H-imidazol-1-yl)-3-methoxyphenyl)-4-((2S,6R)-2,6-dimethylmorpholino)-7-(4-fluorophenyl)-5,7-dihydrofuro[3,4-d]pyrimidin-2-amine] |
| 10 to 100 | CCNc1nc(Nc2ccc(-n3cnc(Cl)c3)c(OC)c2)nc2c1CCOC2c1ccc(F)cc1 (centres unmarked) [Example 88B, N2-(4-(4-chloro-1H-imidazol-1-yl)-3-methoxyphenyl)-N4-ethyl-8-(4-fluorophenyl)-6,8-dihydro-5H-pyrano[3,4-d]pyrimidine-2,4-diamine] |

The remaining lines, values behind:

| SMILES | IC50 [nM] |
| --- | --- |
| CNc1nc(Nc2ccc(-n3cnc(Cl)c3)c(OC)c2)nc2c1COCC2c1ccc(Cl)cc1 (centres unmarked) [Example 64, N^2-(4-(4-chloro-1H-imidazol-1-yl)-3-methoxyphenyl)-8-(4-chlorophenyl)-N^4-methyl-7,8-dihydro-5H-pyrano[4,3-d]pyrimidine-2,4-diamine] | 10 to 100 |
| COc1cc(Nc2nc3c(c(N(C)C)n2)COCC3c2ccc(Cl)cc2)ccc1-n1cnc(Cl)c1 (centres unmarked) [Example 65, N^2-(4-(4-chloro-1H-imidazol-1-yl)-3-methoxyphenyl)-8-(4-chlorophenyl)-N^4,N^4-dimethyl-7,8-dihydro-5H-pyrano[4,3-d]pyrimidine-2,4-diamine] | 10 to 100 |
| COc1cc(Nc2nc3c(c(N4CC(F)(F)C4)n2)COCC3c2ccc(Cl)cc2)ccc1-n1cnc(Cl)c1 (centres unmarked) [Example 66, N-(4-(4-chloro-1H-imidazol-1-yl)-3-methoxyphenyl)-8-(4-chlorophenyl)-4-(3,3-difluoroazetidin-1-yl)-7,8-dihydro-5H-pyrano[4,3-d]pyrimidin-2-amine] | 10 to 100 |
| Cc1ncnn1-c1ccc(Nc2nc3c(c(N(C)C)n2)COCC3c2ccc(Cl)cc2)cc1F (centres unmarked) [Example 67, 8-(4-chlorophenyl)-N^2-(3-fluoro-4-(5-methyl-1H-1,2,4-triazol-1-yl)phenyl)-N^4,N^4-dimethyl-7,8-dihydro-5H-pyrano[4,3-d]pyrimidine-2,4-diamine] | 10 to 100 |
| Cc1ncnn1-c1ccc(Nc2nc3c(c(N4CC(F)(F)C4)n2)COCC3c2ccc(Cl)cc2)cc1F (centres unmarked) [Example 68, 8-(4-chlorophenyl)-4-(3,3-difluoroazetidin-1-yl)-N-(3-fluoro-4-(5-methyl-1H-1,2,4-triazol-1-yl)phenyl)-7,8-dihydro-5H-pyrano[4,3-d]pyrimidin-2-amine] | 10 to 100 |
| CNc1nc(Nc2ccc(-n3ncnc3C)c(F)c2)nc2c1COCC2c1ccc(Cl)cc1 (centres unmarked) [Example 69, 8-(4-chlorophenyl)-N^2-(3-fluoro-4-(5-methyl-1H-1,2,4-triazol-1-yl)phenyl)-N^4-methyl-7,8-dihydro-5H-pyrano[4,3-d]pyrimidine-2,4-diamine] | 10 to 100 |
| CNc1nc(Nc2ccc(-n3cnc(C)c3)c(OC)c2)nc2c1COCC2c1ccc(Cl)cc1 (centres unmarked) [Example 70, 8-(4-chlorophenyl)-N^2-(3-methoxy-4-(4-methyl-1H-imidazol-1-yl)phenyl)-N^4-methyl-7,8-dihydro-5H-pyrano[4,3-d]pyrimidine-2,4-diamine] | 1.5 to 9.9 |
| CNc1nc(Nc2ccc(-n3cnc(C)n3)c(OC)c2)nc2c1COCC2c1ccc(Cl)cc1 (centres unmarked) [Example 71, 8-(4-chlorophenyl)-N^2-(3-methoxy-4-(3-methyl-1H-1,2,4-triazol-1-yl)phenyl)-N^4-methyl-7,8-dihydro-5H-pyrano[4,3-d]pyrimidine-2,4-diamine] | 10 to 100 |
| CNc1nc(Nc2ccc(-n3cnc(Cl)c3)c(OC)c2)nc2c1COCC2c1ccc(Br)cc1 (centres unmarked) [Example 72, 8-(4-bromophenyl)-N^2-(4-(4-chloro-1H-imidazol-1-yl)-3-methoxyphenyl)-N^4-methyl-7,8-dihydro-5H-pyrano[4,3-d]pyrimidine-2,4-diamine] | 1.5 to 9.9 |
| CCNc1nc(Nc2ccc(-n3cnc(Cl)c3)c(OC)c2)nc2c1COC2c1ccc(F)cc1 (centres unmarked) [Example 75, N^2-(4-(4-chloro-1H-imidazol-1-yl)-3-methoxyphenyl)-N^4-ethyl-7-(4-fluorophenyl)-5,7-dihydrofuro[3,4-d]pyrimidine-2,4-diamine] | 10 to 100 |
| CCNc1nc(Nc2ccc(-n3ncnc3C)c(F)c2)nc2c1COC2c1ccc(F)cc1 (centres unmarked) [Example 78, N^4-ethyl-N^2-(3-fluoro-4-(5-methyl-1H-1,2,4-triazol-1-yl)phenyl)-7-(4-fluorophenyl)-5,7-dihydrofuro[3,4-d]pyrimidine-2,4-diamine] | 10 to 100 |
| COc1cc(Nc2nc(N[C@H](C)C3CC3)c3c(n2)C(c2ccc(F)cc2)OC3)ccc1-n1cnc(Cl)c1 (stereo partly drawn) [Example 81, N2-(4-(4-chloro-1H-imidazol-1-yl)-3-methoxyphenyl)-N4-((R)-1-cyclopropylethyl)-7-(4-fluorophenyl)-5,7-dihydrofuro[3,4-d]pyrimidine-2,4-diamine, TFA] | 10 to 100 |
| CNc1nc(Nc2ccc(-n3cnc(Cl)c3)c(OC)c2)nc2c1CCOC2c1ccccc1 (centres unmarked) [Example 85, N2-(4-(4-chloro-1H-imidazol-1-yl)-3-methoxyphenyl)-N4-methyl-8-phenyl-6,8-dihydro-5H-pyrano[3,4-d]pyrimidine-2,4-diamine] | 1.5 to 9.9 |
| CNc1nc(Nc2ccc(-n3cnc(C)n3)c(F)c2)nc2c1CCOC2c1ccccc1 (centres unmarked) [Example 86, N2-(3-fluoro-4-(3-methyl-1H-1,2,4-triazol-1-yl)phenyl)-N4-methyl-8-phenyl-6,8-dihydro-5H-pyrano[3,4-d]pyrimidine-2,4-diamine] | 10 to 100 |
| CCN(C)c1nc(Nc2ccc(-n3cnc(Cl)c3)c(OC)c2)nc2c1CCOC2c1ccc(F)cc1 (centres unmarked) [Example 89, N2-(4-(4-chloro-1H-imidazol-1-yl)-3-methoxyphenyl)-N4-ethyl-8-(4-fluorophenyl)-N4-methyl-6,8-dihydro-5H-pyrano[3,4-d]pyrimidine-2,4-diamine] | 10 to 100 |
| COc1cc(Nc2nc3c(c(N(C)C)n2)CCC3c2ccc(Cl)cc2)ccc1-n1cnc(Cl)c1 (centres unmarked) [Example 92, N^2-(4-(4-Chloro-1H-imidazol-1-yl)-3-methoxyphenyl)-7-(4-chlorophenyl)-N^4,N^4-dimethyl-6,7-dihydro-5H-cyclopenta[d]pyrimidine-2,4-diamine] | 10 to 100 |
| CNc1nc(Nc2ccc(-n3ncnc3C)c(F)c2)nc2c1CCC2c1cc(F)c(F)c(F)c1 (centres unmarked) [Example 104, N^2-(3-fluoro-4-(5-methyl-1H-1,2,4-triazol-1-yl)phenyl)-N^4-methyl-7-(3,4,5-trifluorophenyl)-6,7-dihydro-5H-cyclopenta[d]pyrimidine-2,4-diamine] | 10 to 100 |

Same assay, conditions: 19 h, H4 APP751 SWE clone 8.20 cells, 19 h incubation; read-out: Activity Rating (Aβ42 cellular IC50), numeric value

| IC50 [nM] | SMILES |
| --- | --- |
| 290 | COc1cc(Nc2nc3c(c(N4C[C@@H](C)O[C@@H](C)C4)n2)COC3c2ccc(F)cc2)ccc1-n1cnc(Cl)c1 (stereo partly drawn) [Example 84B, N-(4-(4-chloro-1H-imidazol-1-yl)-3-methoxyphenyl)-4-((2S,6R)-2,6-dimethylmorpholino)-7-(4-fluorophenyl)-5,7-dihydrofuro[3,4-d]pyrimidin-2-amine] |
| 4.5 | CCNc1nc(Nc2ccc(-n3cnc(Cl)c3)c(OC)c2)nc2c1CCOC2c1ccc(F)cc1 (centres unmarked) [Example 88A, N2-(4-(4-chloro-1H-imidazol-1-yl)-3-methoxyphenyl)-N4-ethyl-8-(4-fluorophenyl)-6,8-dihydro-5H-pyrano[3,4-d]pyrimidine-2,4-diamine] |

Continued, molecule first:

| SMILES | IC50 [nM] |
| --- | --- |
| CNc1nc(Nc2ccc(-n3ncnc3C)c(F)c2)nc2c1COCC2c1ccc(Br)cc1 (centres unmarked) [Example 73, 8-(4-bromophenyl)-N^2-(3-fluoro-4-(5-methyl-1H-1,2,4-triazol-1-yl)phenyl)-N^4-methyl-7,8-dihydro-5H-pyrano[4,3-d]pyrimidine-2,4-diamine] | 3.8 |
| CNc1nc(Nc2ccc(-n3ncnc3C)c(F)c2)nc2c1CCOC2c1ccccc1 (centres unmarked) [Example 87, N2-(3-fluoro-4-(5-methyl-1H-1,2,4-triazol-1-yl)phenyl)-N4-methyl-8-phenyl-6,8-dihydro-5H-pyrano[3,4-d]pyrimidine-2,4-diamine] | 60 |
| COc1cc(Nc2nc3c(c(N4CC(F)(F)C4)n2)CCC3c2ccc(Cl)cc2)ccc1-n1cnc(Cl)c1 (centres unmarked) [Example 93, N-(4-(4-Chloro-1H-imidazol-1-yl)-3-methoxyphenyl)-7-(4-chlorophenyl)-4-(3,3-difluoroazetidin-1-yl)-6,7-dihydro-5H-cyclopenta[d]pyrimidin-2-amine] | 20 |

Same assay, conditions: H4 APP751 SWE clone 8.20 cells, 19 h incubation; class symbols; read-out: Activity Rating (Aβ42 cellular IC50)

| IC50 [nM] | SMILES |
| --- | --- |
| 1.5 to 9.9 | CNc1nc(Nc2ccc(-n3ncnc3C)c(F)c2)nc2c1COC2c1ccc(F)cc1 (centres unmarked) [Example 82A, N2-(3-fluoro-4-(5-methyl-1H-1,2,4-triazol-1-yl)phenyl)-7-(4-fluorophenyl)-N4-methyl-5,7-dihydrofuro[3,4-d]pyrimidine-2,4-diamine] |
| 10 to 100 | CNc1nc(Nc2ccc(-n3ncnc3C)c(F)c2)nc2c1COC2c1ccc(F)cc1 (centres unmarked) [Example 82B, N2-(3-fluoro-4-(5-methyl-1H-1,2,4-triazol-1-yl)phenyl)-7-(4-fluorophenyl)-N4-methyl-5,7-dihydrofuro[3,4-d]pyrimidine-2,4-diamine] |
| 1.5 to 9.9 | CNc1nc(Nc2ccc(-n3cnc(Cl)c3)c(OC)c2)nc2c1CCC2c1cc(F)cc(F)c1 (centres unmarked) [Example 102A, N^2-(4-(4-Chloro-1H-imidazol-1-yl)-3-methoxyphenyl)-7-(3,5-difluorophenyl)-N^4-methyl-6,7-dihydro-5H-cyclopenta[d]pyrimidine-2,4-diamine] |
| 10 to 100 | CNc1nc(Nc2ccc(-n3cnc(Cl)c3)c(OC)c2)nc2c1CCC2c1cc(F)cc(F)c1 (centres unmarked) [Example 102B, N^2-(4-(4-Chloro-1H-imidazol-1-yl)-3-methoxyphenyl)-7-(3,5-difluorophenyl)-N^4-methyl-6,7-dihydro-5H-cyclopenta[d]pyrimidine-2,4-diamine] |
